Among the data in the supplement of paper PMC10307832 are relative viability values, retold here.

Holding throughout (assay): relative viability (nuclei count vs DMSO), 5 days (fraction); higher = more cells survive
Compound in experiment [1]: CC(C)(C)c1nc(-c2cccc(NS(=O)(=O)c3c(F)cccc3F)c2F)c(-c2ccnc(N)n2)s1 [Dabrafenib] + COc1cc2c(Oc3ccc(NC(=O)C4(C(=O)Nc5ccc(F)cc5)CC4)cc3F)ccnc2cc1OCCCN1CCOCC1 [Foretinib] (partner 0.25 µM)
The procedure, abridged: (§1)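 Relative viability divides the nuclei count in treated wells by that in vehicle wells. Lung cancer cell lines were seeded in 1536-well plates, dosed by pin tool the next day, and fixed and stained after 5 days in one step with final 0.05% Triton X-100, 1% formaldehyde and 1 ug/ml Hoechst. Dosing was a single drug or a fixed anchor-drug dose plus five library-drug doses (not always all listed) in √10 steps, and values are medians of duplicate plates imaged at 4×.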

Compound in experiment [2]: CC(C)(C)c1nc(-c2cccc(NS(=O)(=O)c3c(F)cccc3F)c2F)c(-c2ccnc(N)n2)s1 [Dabrafenib] + CS(=O)(=O)N1CCN(Cc2cc3nc(-c4cccc5[nH]ncc45)nc(N4CCOCC4)c3s2)CC1 [Pictilisib] (partner 1 µM)
The procedure, abridged:
as §1

Compound in experiment [3]: NC(=O)c1ccc(N(C(N)=O)c2c(F)cccc2F)nc1-c1ccc(F)cc1F [VX-702] + Cc1cc(Nc2cc(N3CCN(C)CC3)nc(Sc3ccc(NC(=O)C4CC4)cc3)n2)n[nH]1 [Tozasertib] (partner 0.1 µM)
In outline:
as §1

Compound in experiment [4]: NC(=O)c1ccc(N(C(N)=O)c2c(F)cccc2F)nc1-c1ccc(F)cc1F [VX-702] + O=C(c1cc(Cc2n[nH]c(=O)c3ccccc23)ccc1F)N1CCN(C(=O)C2CC2)CC1 [Olaparib] (partner 8 µM)
In outline:
as §1

With EKVX, the relative viability was found to be 0.457 in experiment [1] (first compound 0.003 µM); 0.603 in experiment [1] (first compound 0.009487 µM); 0.793 in experiment [1] (first compound 0.03 µM); 0.886 in experiment [1] (first compound 0.09487 µM); 0.987 in experiment [1] (first compound 0.3 µM); 0.413 in experiment [2] (first compound 0.003 µM). The relative viability in experiment [2] (first compound 0.009487 µM) stood at 0.458; in experiment [2] (first compound 0.03 µM), 0.38; in experiment [2] (first compound 0.09487 µM) it was 0.495; in experiment [2] (first compound 0.3 µM), 0.59; in experiment [3] (first compound 0.02 µM), 0.381; in experiment [3] (first compound 0.2 µM), 0.36. Further, the relative viability in experiment [3] (first compound 0.6325 µM) turned out to be 0.379; in experiment [3] (first compound 2 µM), 0.423; in experiment [4] (first compound 0.02 µM), 0.726; in experiment [4] (first compound 0.2 µM) it was 0.869; in experiment [4] (first compound 0.6325 µM) it was 0.906; in experiment [4] (first compound 2 µM) it was 0.974.
For EMC-BAC-2, the relative viability is 1.01 in experiment [1] (first compound 0.003 µM); 1.01 in experiment [1] (first compound 0.009487 µM); 0.766 in experiment [1] (first compound 0.03 µM); 0.924 in experiment [1] (first compound 0.09487 µM); 1.06 in experiment [1] (first compound 0.3 µM); 0.52 in experiment [2] (first compound 0.003 µM). The relative viability in experiment [2] (first compound 0.009487 µM) was 0.434; in experiment [2] (first compound 0.03 µM), 0.389; in experiment [2] (first compound 0.09487 µM), 0.585; in experiment [2] (first compound 0.3 µM) it was 0.623; in experiment [3] (first compound 0.02 µM), 0.349; in experiment [3] (first compound 0.2 µM), 0.278. The relative viability in experiment [3] (first compound 0.6325 µM) turned out to be 0.272; in experiment [3] (first compound 2 µM) it was 0.304; in experiment [4] (first compound 0.02 µM), 0.526; in experiment [4] (first compound 0.2 µM) it was 0.483; in experiment [4] (first compound 0.6325 µM) it was 0.482; in experiment [4] (first compound 2 µM) it was 0.441.
Regarding EPLC-272H, the relative viability was found to be 0.671 in experiment [1] (first compound 0.003 µM); 0.811 in experiment [1] (first compound 0.009487 µM); 0.619 in experiment [1] (first compound 0.03 µM); 0.587 in experiment [1] (first compound 0.09487 µM); 0.738 in experiment [1] (first compound 0.3 µM); 0.212 in experiment [2] (first compound 0.009487 µM). Moreover, the relative viability in experiment [2] (first compound 0.03 µM) stood at 0.288; in experiment [2] (first compound 0.09487 µM) it was 0.414; in experiment [2] (first compound 0.3 µM), 0.369; in experiment [3] (first compound 0.02 µM), 0.345; in experiment [3] (first compound 0.2 µM) it was 0.235; in experiment [3] (first compound 0.6325 µM), 0.418. Also, the relative viability in experiment [3] (first compound 2 µM) amounted to 0.289; in experiment [4] (first compound 0.02 µM) it was 0.856; in experiment [4] (first compound 0.2 µM), 1.07; in experiment [4] (first compound 0.6325 µM) it was 0.799; in experiment [4] (first compound 2 µM) it was 1.07.
Take H3255: the relative viability in experiment [1] (first compound 0.003 µM) was determined as 0.688; in experiment [1] (first compound 0.009487 µM) it was 0.897; in experiment [1] (first compound 0.03 µM), 1.09; in experiment [1] (first compound 0.09487 µM), 0.667; in experiment [1] (first compound 0.3 µM), 0.839; in experiment [2] (first compound 0.003 µM), 0.394. The relative viability in experiment [2] (first compound 0.009487 µM) came out at 0.566; in experiment [2] (first compound 0.03 µM), 0.43; in experiment [2] (first compound 0.09487 µM), 0.405; in experiment [2] (first compound 0.3 µM) it was 0.462; in experiment [3] (first compound 0.02 µM), 0.576; in experiment [3] (first compound 0.2 µM), 0.792. For the same cell line, the relative viability in experiment [3] (first compound 0.6325 µM) was 0.655; in experiment [3] (first compound 2 µM), 0.8; in experiment [4] (first compound 0.02 µM), 0.578; in experiment [4] (first compound 0.2 µM) it was 0.53; in experiment [4] (first compound 0.6325 µM), 0.558; in experiment [4] (first compound 2 µM) it was 0.594.
For HARA, the relative viability was 0.907 in experiment [1] (first compound 0.003 µM); 0.906 in experiment [1] (first compound 0.009487 µM); 0.78 in experiment [1] (first compound 0.09487 µM); 0.972 in experiment [1] (first compound 0.3 µM); 0.327 in experiment [2] (first compound 0.003 µM); 0.629 in experiment [2] (first compound 0.009487 µM). Also, the relative viability in experiment [2] (first compound 0.03 µM) was 0.325; in experiment [2] (first compound 0.09487 µM), 0.399; in experiment [2] (first compound 0.3 µM) it was 0.605; in experiment [3] (first compound 0.02 µM), 0.113; in experiment [3] (first compound 0.2 µM) it was 0.0909; in experiment [3] (first compound 0.6325 µM), 0.118. For the same cell line, the relative viability came to 0.117 in experiment [3] (first compound 2 µM), 0.87 in experiment [4] (first compound 0.02 µM), 0.779 in experiment [4] (first compound 0.6325 µM) and 0.964 in experiment [4] (first compound 2 µM).
On to HCC-15, for which the relative viability amounted to 0.944 in experiment [1] (first compound 0.003 µM); 1.07 in experiment [1] (first compound 0.009487 µM); 1.08 in experiment [1] (first compound 0.03 µM); 0.852 in experiment [1] (first compound 0.09487 µM); 1.03 in experiment [1] (first compound 0.3 µM); 0.595 in experiment [2] (first compound 0.003 µM). Besides, the relative viability worked out at 0.851 in experiment [2] (first compound 0.009487 µM); 0.654 in experiment [2] (first compound 0.03 µM); 0.797 in experiment [2] (first compound 0.09487 µM); 0.725 in experiment [2] (first compound 0.3 µM); 0.402 in experiment [3] (first compound 0.02 µM); 0.322 in experiment [3] (first compound 0.2 µM). The relative viability in experiment [3] (first compound 0.6325 µM) amounted to 0.408; in experiment [3] (first compound 2 µM) it was 0.53; in experiment [4] (first compound 0.02 µM), 0.752; in experiment [4] (first compound 0.2 µM), 0.712; in experiment [4] (first compound 0.6325 µM), 0.692; in experiment [4] (first compound 2 µM) it was 0.719.
On to HCC-78, for which the relative viability turned out to be 0.633 in experiment [1] (first compound 0.009487 µM); 0.537 in experiment [1] (first compound 0.03 µM); 0.632 in experiment [1] (first compound 0.09487 µM); 0.581 in experiment [1] (first compound 0.3 µM); 0.235 in experiment [2] (first compound 0.009487 µM); 0.192 in experiment [2] (first compound 0.03 µM). The relative viability in experiment [2] (first compound 0.09487 µM) was 0.276; in experiment [2] (first compound 0.3 µM), 0.219; in experiment [3] (first compound 0.02 µM) it was 0.42; in experiment [3] (first compound 0.2 µM), 0.456; in experiment [3] (first compound 0.6325 µM), 0.325; in experiment [3] (first compound 2 µM), 0.465. For the same cell line, the relative viability was 0.743 in experiment [4] (first compound 0.02 µM), 0.671 in experiment [4] (first compound 0.2 µM), 0.83 in experiment [4] (first compound 0.6325 µM) and 0.867 in experiment [4] (first compound 2 µM).
